These results are taken from US20210137858A1, “COMBINATION FORMULATION CONTAINING COLCHICINE FOR TREATMENT OR ENHANCING THE THERAPY OF LIVER DISEASE” (priority 2019, published 2021).

Holding throughout (type): in vivo, Wistar Rat
One assay deals with liver fibrosis by CCl4. Put plainly: Hydroxyproline assay, CCl4 liver fibrosis, colchicine dose (Examples 1-2). The following applies: for Hydroxyproline: CCl4 0.4 g/kg rats. As to the method:
(§1) Male Wistar Rat [about 150 g, 4 to 5-week old]
An administration plan of carbon tetrachloride (CCl4) and colchicine used in this experiment is as follows:
(1) Carbon tetrachloride: Intraperitoneal administration of 0.4 g/kg·bw, administered 3 times per week for 10 weeks • (2) Colchicine: Oral administration of 10, 50, 100 μg/kg·bw, once daily for 10 weeks
(§2) For this experiment, each group was classified as follows, and one group was used by 12 rats.
(3) CCl4-administered group [0.4 g/kg]
(4) CCl4+Colchicine [10 μg/kg]
(5) CCl4+Colchicine [50 μg/kg]
(6) CCl4+Colchicine [100 μg/kg]
The following items were measured to confirm the enhancement of the efficacy for treating liver fibrosis. Fibrosis index items were measured at 10 weeks.
(1) Fibrosis index item: hydroxyproline
Hydroxyproline assay was performed for each group to confirm the levels of […] accumulation in the liver.

Assay [1] deals with liver damage caused by CCl4. Put plainly: Blood and serum levels (albumin, ALP, ALT, AST, total protein) in CCl4-administered rats (Examples 3, 4-1 to 4-3). On the procedure:
as §1
(§3) An administration plan of carbon tetrachloride (CCl4), silymarin, colchicine, and biphenyldimethyl dicarboxylate (DDB) used in this experiment is as follows:
(§4) (1) Carbon tetrachloride: Intraperitoneal administration of 0.4 g/kg·bw, administered 3 times per week for 10 weeks
(§5) (2) Silymarin: Oral administration of 10, 30, 50 mg/kg·bw, administered once a day for 10 weeks
(§6) (3) Colchicine: Oral administration of 10 μg/kg·bw, administered once a day for 10 weeks
(§7) (4) Biphenyldimethyl dicarboxylate (DDB): Oral administration of 10, 20, 25 mg/kg·bw, administered once a day for 10 weeks
(§8) (5) UDCA: Oral administration of 30 mg/kg·bw, administered once a day for 10 weeks
as §2
(§9) (4) CCl4+DDB [25 mg/kg] administered group
(§10) (5) CCl4+Colchicine [10 μg/kg]+DDB [25 mg/kg] administered group
(§11) (6) CCl4+Colchicine [10 μg/kg]+DDB [20 mg/kg] administered group
(§12) (7) CCl4+Colchicine [10 μg/kg]+DDB [10 mg/kg] administered group
(§13) (8) CCl4+Silymarin [50 mg/kg] administered group
(§14) (9) CCl4+Colchicine [10 μg/kg]+Silymarin [50 mg/kg] administered group
(§15) (10) CCl4+Colchicine [10 μg/kg]+Silymarin [30 mg/kg] administered group
(§16) (11) CCl4+Colchicine [10 μg/kg]+Silymarin [10 mg/kg] administered group
(12) CCl4+Colchicine [10 μg/kg]+UDCA [30 mg/kg] administered group
Serum items were measured at 4 weeks and 10 weeks, and histological items were measured at 10 weeks.
(1) Serum enzyme items: Albumin, total protein concentration, ALT, AST, ALP, etc.
(§17) At this time, the dose of colchicine administered was all the same at 10 μg/kg.
as §17, §17

Assay [2] has as its system fibrin accumulation in the liver (CCl4). The following applies: DDB 25 mg/kg alone; CCl4 0.4 g/kg rats. On the procedure:
as §1, §3, §4, §5, §6, §7, §8, §2, §9, §10, §11, §12, §13, §14, §15, §16
(12) CCl4+Colchicine [10 μg/kg]+UDCA [30 mg/kg] administered group […]

The subject of assay [3] is liver tissue of CCl4-administered rats. Put plainly: Liver histopathological examination (H&E staining) (Example 4-5). Set-up: key to Fatty necrosis / Ballooning degeneration / Fatty change / Fibrosis: 0 point for no disease (NAD); 1 point for mild symptoms; 2 points for moderate symptoms; 3 points for severe symptoms. The following applies: DDB [25 mg] alone, 10 weeks. As to the method:
as §1, §3, §4, §2
The following items were measured to confirm the enhancement of the efficacy for the treatment of liver disease (hepatitis, liver fibrosis, etc.). Serum items were measured at 4 weeks and 10 weeks, and histological items were measured at 10 weeks.
(2) Liver tissue Histology: H&E staining
In each group, when the pathological characteristics for fatty necrosis, ballooning, fatty change, and fibrosis may be identified according to severity of disease, it was evaluated by assigning 0 point for no disease (NAD), 1 point for mild symptoms, 2 points for moderate symptoms, and 3 points for severe symptoms.

The mark [4] stands for this setting: DDB 25 mg/kg alone, CCl4 rats, serum.

On to `COc1cc2c(c(OC)c1OC)-c1ccc(OC)c(=O)cc1[C@@H](NC(C)=O)CC2` [Colchicine, colchicine], for which the figures for the Hydroxyproline in the assay with liver fibrosis by CCl4 (colchicine 10 μg/kg oral once daily 10 weeks), with liver fibrosis by CCl4 (colchicine 50 μg/kg oral once daily 10 weeks) and in the assay on liver fibrosis by CCl4 (colchicine 100 μg/kg oral once daily 10 weeks) were 320.12 ± 13.32 μg/g of liver, 313.33 ± 12.50 μg/g of liver and 302.25 ± 10.25 μg/g of liver, respectively. In addition, the “fibrin (hydroxyproline assay), in words” value with liver fibrosis by CCl4 (colchicine-administered group vs CCl4, Table 1) is given as “significant reduction effect of fibrin”.
Consider `COC(=O)c1cc(OC)c2c(c1-c1c(C(=O)OC)cc(OC)c3c1OCO3)OCO2` [DDB, biphenyldimethyl dicarboxylate], for which, in assay [1] (setting [4]), the ALP is recorded as 1428.90 ± 681.53 U/L, the ALT stood at 1543.09 ± 408.03 U/L, the AST was found to be 1642.24 ± 764.93 U/L and the Albumin worked out at 2.13 ± 0.09 g/dL. In assay [1] (setting [4]), the Total protein was determined as 5.35 ± 0.28 g/dL. Besides, in assay [1] (vs CCl4 administration, Tables 2 and 4), the “ALP (Alkaline phosphatase) level, in words” value was “the level was increased”. For the same compound, in assay [1] (vs level reduced by CCl4, Tables 2-4), the “Albumin level, in words” value was “tended to be recovered”. Moreover, the “Total protein, in words” value in assay [1] (vs value reduced by CCl4, Tables 2-4) was “tended to be recovered”. Further, the Hydroxyproline in assay [2] is listed as 317.74 ± 9.24 μg/g of liver. In assay [3], this compound registered a Ballooning degeneration of 3, a Fatty change of 1, a Fatty necrosis of 1 and a Fibrosis of 2. Also, the “Total Score” value in assay [3] is 7.
